ChEMBL document CHEMBL1671671, “Tooth-binding micelles for dental caries prevention” (Antimicrob Agents Chemother, 2009)
In brackets after ≈: the same amount, converted by molar mass.

Legend:
[1] = system: Streptococcus mutans; assay: Antibacterial activity against Streptococcus mutans UA159; assay type: functional
[2] = system: Streptococcus mutans; assay: (§1) Antibacterial activity against Streptococcus mutans UA159 assessed as log decrease in bacterial count per biofilm recovered from hydroxyapatite disc using low dose compound containing hydroxyapatite bound tooth-binding micelles formed from biocompatible pluronic copolymers modified with alendronat measured after 48 hrs post dose; assay type: functional
[3] = system: Streptococcus mutans; assay: as §1, with “medium” for “low”; assay type: functional
[4] = system: Streptococcus mutans; assay: as §1, with “high” for “low”; assay type: functional
[5] = Drug release from hydroxyapatite bound tooth-binding micelles formed from biocompatible pluronic copolymers modified with alendronat assessed as compound release into medium after 48 hrs; assay type: physicochemical

What does the source list for `CC(C)=CCC/C(C)=C/CC/C(C)=C/CO` [FARNESOL]?
MIC [1]: 125 µM (≈ 27.8 µg/mL); FC [2]: 4; FC [3]: 4; FC [4]: 4; Activity [5]: 10%
